In article PMC5078989, “Targeted inhibition of the COP9 signalosome for treatment of cancer” (Nature Communications, 2016):
pEC50: −log10 of the molar value.

System: panel of cancer cell lines
Assay: Cell viability (CellTiter-Glo) dose-response across cancer cell line panel; on AMAX: reference of the scale not given here;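 on pEC50: after 72 h compound incubation with CellTiter-Glo ATP readout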
Type: cell-based, human
Conditions: for pEC50: Homo sapiens
Outline: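 Dose–response viability screen of a CSN5 inhibitor in over 500 cancer lines. Compound exposure lasted 72 h at 37 °C and 5% CO2, starting 4 h post-seeding. ATP luminescence (CellTiter-Glo) was read, and EC50 was obtained by nonlinear regression of percent inhibition.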

pEC50 (SNU-685): 6.14
pEC50 (SNU-738): 6.39
pEC50 (SNU-761): 6.06
pEC50 (SNU-886, SNU-886): 7.37
pEC50 (SNU-1040): 6.80
pEC50 (SNU-1079): 6.41
pEC50 (SNU-C1, SNU-C1): 5.79
pEC50 (SNU-C2A): 5.19
pEC50 (SNU-C4, SNU-C4): 5.95
pEC50 (SNU-C5): 6.23
pEC50 (SR-786, SR-786): 6.07
pEC50 (SU-DHL10, SU-DHL-10): 6.69
pEC50 (SU-DHL-4, SU-DHL-4): 7.12
pEC50 (SU-DHL-5, SU-DHL-5): 7.00
pEC50 (SU-DHL-6, SU-DHL-6): 6.61
pEC50 (SU-DHL-8, SU-DHL-8): 6.81
pEC50 (SU.86.86, SU.86.86): 6.11
pEC50 (SUIT-2, SUIT-2): 6.73
pEC50 (SUM52PE): 6.96
pEC50 (SUM149PT): 6.21
pEC50 (SUM185PE): 7.20
pEC50 (SUM190PT): 7.00
pEC50 (SUM-159-PT, SUM159PT): 5.16
pEC50 (SUP-T1, SUP-T1): 6.81
pEC50 (SW48, SW48): 6.84
pEC50 (SW480, SW480): 6.40
pEC50 (SW900, SW 900): 5.82
pEC50 (SW982, SW982): 6.09
pEC50 (SW1088, SW 1088): < 4.52
pEC50 (SW1271, SW 1271): 6.28
pEC50 (SW1353, SW 1353): 5.54
pEC50 (SW1573, SW 1573): 6.65
pEC50 (SW1783, SW 1783): < 4.52
pEC50 (SW-403, SW403): 6.10
pEC50 (SW-620, SW620): 5.82
pEC50 (SYO-1): 6.55
pEC50 (Sq-1): 6.78
pEC50 (T3M4, T3M-4): 6.34
pEC50 (T47D, T-47D): 6.50
pEC50 (TALL-1, TALL-1): 6.35
pEC50 (TANOUE): 7.24
pEC50 (TC-71, TC-71): 6.80
pEC50 (TCC-PAN2): 5.89
pEC50 (TE-1, TE-1): 5.77
pEC50 (TE-6, TE-6): 6.37
pEC50 (TE-11, TE-11): 6.61
pEC50 (TE-14): 6.47
pEC50 (TF-1, TF-1): 5.77
pEC50 (THP-1, THP-1): 6.76
pEC50 (TT2609-C02): 6.48
pEC50 (TYK-nu): 6.81
pEC50 (U266B1): 6.08
pEC50 (U-87 MG): 6.35
pEC50 (U-118-MG, U-118 MG): 6.27
pEC50 (U-251, U-251 MG): 5.77
pEC50 (U-937, U-937): 6.99
pEC50 (UACC-62, UACC-62): 6.72
pEC50 (UACC-257, UACC-257): 6.19
pEC50 (UCH1, UCH-1): 5.28
pEC50 (UKE1, UKE1): 6.42
pEC50 (VM-CUB-1, VM-CUB1): 6.08
pEC50 (VMRC-LCD): 6.54
pEC50 (VMRC-RCW): 5.91
pEC50 (WM 266-4, WM-266-4): 6.33
pEC50 (WM983B, WM-983B): 6.70
pEC50 (WM-88): 6.29
pEC50 (WM-115, WM-115): 5.85
pEC50 (WM-1799, WM1799): 6.81
pEC50 (WSU-WM): 6.73
pEC50 (YAPC): 6.69
pEC50 (ZR-75-1, ZR-75-1): 6.45
SMILES: NS(=O)(=O)OC[C@@H]1C[C@@H](n2ccc3c(N[C@H]4CCc5ccccc54)ncnc32)C[C@@H]1O [MLN4924]
AMAX (Hs 695T): -54.4409
AMAX (Hs 936.T): -81.1628
AMAX (HuG1-N): -47.6265
AMAX (HuH-7): -61.9045
AMAX (IGR-37): -85.5177
AMAX (IGROV1): -85.9932
AMAX (IPC-298): -80.8233
AMAX (Ishikawa): -91.0654
AMAX (J82): -49.0789
AMAX (JHH-4): -91.4007
AMAX (JHOS-2): -63.2509
AMAX (JHUEM-2): -75.0485
AMAX (JHUEM-3): -28.2496
AMAX (JL-1): -61.5427
AMAX (JVM-2): -91.7997
AMAX (KARPAS-422): -93.0088
AMAX (KATO III): -44.0826
AMAX (KBM-7): -98.5101
AMAX (KE-97): -95.9856
AMAX (KMRC-1): -84.1268
AMAX (KP4): -71.8264
AMAX (KP-1N): -53.1172
AMAX (KP-2): -64.2974
AMAX (KP-3): -63.0208
AMAX (KU-19-19): -84.2248
AMAX (KYSE-150): -87.7498
AMAX (KYSE-180): -85.8737
AMAX (Kasumi3): -97.5892
AMAX (L-363): -96.7272
AMAX (LC2/ad): -74.576
AMAX (MM138): -73.7519
AMAX (MM415): -81.4932
AMAX (MM426): -75.6165
AMAX (MM485): -69.3744
AMAX (MM537): -69.6122
AMAX (MOLT-16): -97.3083
AMAX (MeWo): -75.2037
AMAX (NB-1): -99.4488
AMAX (NCI-H82): -97.4475
AMAX (NCI-H146): -90.9498
AMAX (NCI-H322): -80.9979
AMAX (NCI-H441): -47.4873
AMAX (NCI-H647): -73.4893
AMAX (NCI-H841): -87.0207
AMAX (NCI-H1373): -83.9593
AMAX (NCI-H1568): -95.718
AMAX (NCI-H1755): -73.6315
AMAX (NCI-H2023): -96.0734
AMAX (NCI-H2087): -83.0999
AMAX (NCI-H2110): -89.6657
AMAX (NCI-H2452): -41.6484
AMAX (NCI-N87): -74.5636
AMAX (NO36): -67.5733
AMAX (OUMS-23): -78.9353
AMAX (OV56): -95.0768
AMAX (P3HR-1): -93.355
AMAX (P12-ICHIKAWA): -96.3019
AMAX (PA-TU-8988T): -81.7224
AMAX (PANC-1): -64.2148
AMAX (PC-3): -79.4027
AMAX (PE/CA-PJ34 (clone C12)): -79.361
AMAX (PE/CA-PJ49): -67.4836
AMAX (PF-382): -98.4673
AMAX (PL-21): -95.522
AMAX (Panc 03.27): -88.9221
AMAX (Panc 04.03): -72.0017
AMAX (Panc 10.05): -85.7173
AMAX (RD-ES): -97.5942
AMAX (RT-112): -90.3953
AMAX (SEM): -97.7133
AMAX (SK-ES-1): -95.0336
AMAX (SK-MEL-3): -81.0459
AMAX (SW480): -74.5488
AMAX (VMRC-RCW): -71.6057
